Assay results as given in patent publication US8415356B2, “Isoquinolinone derivatives as NK3 antagonists” (H. Lundbeck A/S, priority 2008, dated 2013).

Tests used:
human NK3 receptor = target: T1, human NK3 receptor (Homo sapiens, UniProt P29371); assay: NK3 receptor binding assay (SPA-based competition binding with 125I-NKB); conditions: read-out: Affinity Ki/nM
T1 construct: expressed in transfected cells; membranes prepared from them
T1 sequence (P29371 1-465): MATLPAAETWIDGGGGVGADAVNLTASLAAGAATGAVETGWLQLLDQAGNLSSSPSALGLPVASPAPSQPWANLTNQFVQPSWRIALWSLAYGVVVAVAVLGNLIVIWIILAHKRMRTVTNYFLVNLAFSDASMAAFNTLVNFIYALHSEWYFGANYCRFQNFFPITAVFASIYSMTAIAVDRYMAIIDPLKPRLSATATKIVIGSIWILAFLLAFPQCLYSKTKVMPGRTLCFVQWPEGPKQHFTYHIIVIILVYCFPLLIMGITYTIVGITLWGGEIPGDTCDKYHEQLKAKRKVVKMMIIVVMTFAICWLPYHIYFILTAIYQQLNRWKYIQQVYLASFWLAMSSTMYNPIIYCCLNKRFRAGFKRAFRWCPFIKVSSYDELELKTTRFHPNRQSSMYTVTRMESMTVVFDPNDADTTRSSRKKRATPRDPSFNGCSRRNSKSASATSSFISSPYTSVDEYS
Protocol: Membrane preparation: BHK cells stably expressing the human NK3 receptor were seeded in harvesting plates in Dulbeccos MEM containing GlutaMax (862 mg/l), 1 mM sodium pyruvate, 10% fetal calf serum, 1% Pen/Strep, 1 mg/ml G418 and were grown at 34° C. in a humidified atmosphere containing 10% CO2. To increase receptor expression, 10 μM trichotatin A was added to the media 24 hours before harvest of the cells at a confluency of app 90%. Prior to the harvesting, the cells were washed twice with PBS without Mg^2+ og Ca^2+ and subsequently scrapped of in 10 ml PBS pr harvesting plate. The cells suspension were centrifuged at 1500×G in three minutes before resuspension in 15 mM Tris-HCl pH 7.5 buffer containing 2 mM MgCl2; 0.3 mM EDTA and 1 mM EGTA (buffer A). The cell suspention was homogenised and subsequently centrifuged at 40000×G in 30 minutes. The membrane-pellet was resuspended in buffer A containing 250 mM sucrose, aliquoted and stored at −80° C.
Affinity assay description: The assay was performed as a SPA-based competition-binding assay in a 50 mM Tris pH 7.4 assay buffer containing 120 mM NaCl, 3 mM MnCl2, 40 μg/ml bacitracin, 2 μg/ml Chymostatin, 1 μg/ml Phosphoramidon and 4 μg/ml Leupeptin. […] The assay plate was subsequently under agitation incubated for 90 min at RT. The plate was centrifugated 10 minutes at 500×G and counted in a topcounter 5 minutes pr well.

[1] = schizophrenics; cited from earlier work
[2] = versus placebo; delusions, hallucinations and paranoia; cited from earlier work

| Structure (SMILES) | Ki (human NK3 receptor) [nM] | also measured |
| --- | --- | --- |
| Cc1c(C(=O)N[C@H](c2cccc(F)c2)C2CC2)c2cccc(F)c2c(=O)n1-c1ccc(Cl)nc1 [2d, 2-(6-Chloro-pyridin-3-yl)-8-fluoro-3-methyl-1-oxo-1,2-dihydro-isoquinoline-4-carboxylic acid [(S)-cyclopropyl-(3-fluoro-phenyl)-methyl]-amide] | 120 |  |
| Cc1c(C(=O)N[C@H](c2cccc(F)c2)C2CCC2)c2cccc(F)c2c(=O)n1-c1ccn(C)n1 [3f, 8-Fluoro-3-methyl-2-(1-methyl-1H-pyrazol-3-yl)-1-oxo-1,2-dihydro-isoquinoline-4-carboxylic acid [(S)-cyclobutyl-(3-fluoro-phenyl)-methyl]-amide] | 71 |  |
| CC[C@H](NC(=O)c1c(O)c(-c2ccccc2)nc2ccccc12)c1ccccc1 [talnetant] |  | effect in clinical trials on cognitive behaviour [1]: ameliorate the cognitive behaviour |
| Cc1c(C(=O)N[C@H](c2cccc(F)c2)C2CC2)c2cccc(F)c2c(=O)n1-c1cncnc1 [2k, 8-Fluoro-3-methyl-1-oxo-2-pyrimidin-5-yl-1,2-dihydro-isoquinoline-4-carboxylic acid [(S)-cyclopropyl-(3-fluoro-phenyl)-methyl]-amide] | 110 |  |
| Cc1c(C(=O)N[C@H](c2cccc(F)c2)C2CC2)c2cccc(F)c2c(=O)n1-n1cnnc1 [2u, 8-Fluoro-3-methyl-1-oxo-2-[1,2,4]triazol-4-yl-1,2-dihydro-isoquinoline-4-carboxylic acid [(S)-cyclopropyl-(3-fluoro-phenyl)-methyl]-amide] | 200 |  |
| CCc1nnc(-n2c(C)c(C(=O)N[C@H](c3cccc(F)c3)C3CC3)c3cccc(F)c3c2=O)s1 [2v, 2-(5-Ethyl-[1,3,4]thiadiazol-2-yl)-8-fluoro-3-methyl-1-oxo-1,2-dihydro-isoquinoline-4-carboxylic acid [(S)-cyclopropyl-(3-fluoro-phenyl)-methyl]-amide] | 210 |  |
| Cc1ccc(-n2c(C)c(C(=O)N[C@H](c3cccc(F)c3)C3CC3)c3cccc(F)c3c2=O)cn1 [2l, 8-Fluoro-3-methyl-2-(6-methyl-pyridin-3-yl)-1-oxo-1,2-dihydro-isoquinoline-4-carboxylic acid [(S)-cyclopropyl-(3-fluoro-phenyl)-methyl]-amide] | 220 |  |
| Cc1csc(-n2c(C)c(C(=O)N[C@H](c3cccc(F)c3)C3CC3)c3cccc(F)c3c2=O)n1 [2r, 8-Fluoro-3-methyl-2-(4-methyl-thiazol-2-yl)-1-oxo-1,2-dihydro-isoquinoline-4-carboxylic acid [(S)-cyclopropyl-(3-fluoro-phenyl)-methyl]-amide] | 150 |  |
| Cc1c(C(=O)N[C@H](c2cccc(F)c2)C2CC2)c2cccc(F)c2c(=O)n1-n1cccc1 [2ac, 8-Fluoro-3-methyl-1-oxo-2-pyrrol-1-yl-1,2-dihydro-isoquinoline-4-carboxylic acid [(S)-cyclopropyl-(3-fluoro-phenyl)-methyl]-amide] | 96 |  |
| CC(=O)N(C)C1(c2ccccc2)CCN(CCC[C@]2(c3ccc(Cl)c(Cl)c3)CCCN(C(=O)c3ccccc3)C2)CC1 [Osanetant, osanetant] |  | effect in clinical trials, in particular on positive symptoms of psychosis [2]: superior to placebo |
| Cc1c(C(=O)N[C@H](c2cccc(F)c2)C2CC2)c2cccc(F)c2c(=O)n1-c1ccccn1 [2b, 8-Fluoro-3-methyl-1-oxo-2-pyridin-2-yl-1,2-dihydro-isoquinoline-4-carboxylic acid [(S)-cyclopropyl-(3-fluoro-phenyl)-methyl]-amide] | 150 |  |

Continued, in another order:

| Ki (human NK3 receptor) [nM] | Structure (SMILES) | also measured |
| --- | --- | --- |
| 18 | Cc1c(C(=O)N[C@H](c2ccccc2)C2CCC2)c2cccc(F)c2c(=O)n1-c1cccnc1 [4a, 8-Fluoro-3-methyl-1-oxo-2-pyridin-3-yl-1,2-dihydro-isoquinoline-4-carboxylic acid ((S)-cyclobutyl-phenyl-methyl)-amide] |  |
| 110 | O=C(N[C@H](c1cccc(F)c1)C1CC1)c1c(CN2CCCC2=O)n(-c2cccnc2)c(=O)c2c(F)cccc12 [6b, 8-Fluoro-1-oxo-3-(2-oxo-pyrrolidin-1-ylmethyl)-2-pyridin-3-yl-1,2-dihydro-isoquinoline-4-carboxylic acid [(S)-cyclopropyl-(3-fluoro-phenyl)-methyl]-amide] |  |
| 33 | Cc1c(C(=O)N[C@H](c2cccc(F)c2)C2CC2)c2cccc(O)c2c(=O)n1-c1cccnc1 [8a, 8-Hydroxy-3-methyl-1-oxo-2-pyridin-3-yl-1,2-dihydro-isoquinoline-4-carboxylic acid [(S)-cyclopropyl-(3-fluoro-phenyl)-methyl]-amide] |  |
| 15 | Cc1c(C(=O)N[C@H](c2cccc(F)c2)C2CCC2)c2cc(F)cc(F)c2c(=O)n1-c1cccnc1 [7c, 6,8-Difluoro-3-methyl-1-oxo-2-pyridin-3-yl-1,2-dihydro-isoquinoline-4-carboxylic acid [(S)-cyclobutyl-(3-fluoro-phenyl)-methyl]-amide] |  |
| 13 | CC(C)(C)N1CCN(Cc2c(C(=O)N[C@H](c3cccc(F)c3)C3CC3)c3cccc(F)c3c(=O)n2-c2cccnc2)CC1 [6a, 3-(4-tert-Butyl-piperazin-1-ylmethyl)-8-fluoro-1-oxo-2-pyridin-3-yl-1,2-dihydro-isoquinoline-4-carboxylic acid [(S)-cyclopropyl-(3-fluoro-phenyl)-methyl]-amide] |  |
